Experimental data reported in ChEMBL document CHEMBL5344418, “Recent developments in antimalarial activities of 4-aminoquinoline derivatives” (Eur J Med Chem, 2023).

Columns and labels:
[1] = Cytotoxicity against African green monkey Vero cells assessed as reduction in cell viability incubated for 24 hrs by MTT assay; type: toxicity, cell-based; settings: African green monkey (Chlorocebus sabaeus)
[2] = system: Plasmodium falciparum; experiment: Antiplasmodial activity against Plasmodium falciparum W2 assessed as reduction in plasmodial growth after 48 hrs by fluorescence based analysis; type: functional, organism-based; settings: W2, 48 h
[3] = system: Plasmodium falciparum; experiment: Antiplasmodial activity against chloroquine-sensitive Plasmodium falciparum NF54 by lactate dehydrogenase assay; type: functional, organism-based
[4] = Cytotoxicity against Chinese hamster CHO cells assessed as reduction in cell viability by MTT assay; type: toxicity, cell-based; settings: Chinese hamster (Cricetulus griseus)
[5] = system: Plasmodium falciparum; experiment: Antiplasmodial activity against Plasmodium falciparum K1 assessed as growth inhibition measured after 72 hrs by SYBR green dye based assay; type: functional, organism-based; settings: K1, 72 h
[6] = system: Plasmodium falciparum; experiment: Antiplasmodial activity against Plasmodium falciparum 3D7 assessed as growth inhibition measured after 72 hrs by SYBR green dye based assay; type: functional, organism-based; settings: 3D7, 72 h

IC50 [3] [nM]	SMILES	IC50 at 24 h [1] [nM]	IC50 [2] [nM]	IC50 [4] [nM]	further results
–	O=C(CCN1C(=O)c2ccc(N3CCOCC3)cc2C1=O)NCCCCNc1ccnc2cc(Cl)ccc12	136000	220	–	–
–	O=C(CCN1C(=O)c2ccc(F)cc2C1=O)NCCNc1ccnc2cc(Cl)ccc12	93200	360	–	–
100	O=C(/C=C/c1ccc(Cl)cc1)c1ccc(S(=O)(=O)NCCCNc2cncc3cc(Cl)ccc23)cc1	–	–	41200	–
–	Clc1ccc2c(NC(Cc3ccccc3)CN3CCN(Cc4ccccc4)CC3)ccnc2c1 (configuration not stated)	–	–	–	IC50 [5]: > 5000 nM; IC50 [6]: > 5000 nM
–	O=C(CCN1C(=O)c2ccccc2C1=O)NCCCCCCCCNc1ccnc2cc(Cl)ccc12	> 198000	150	–	–
–	CCN(CC)c1ccc2c(c1)C(=O)N(CC(=O)NCCNc1ccnc3cc(Cl)ccc13)C2=O	44400	1140	–	–
790	O=C(/C=C/c1cc(F)ccc1F)c1ccc(S(=O)(=O)NCCCNc2cncc3cc(Cl)ccc23)cc1	–	–	43700	–
–	O=C(CN1C(=O)c2ccccc2C1=O)NCCCCCCNc1ccnc2cc(Cl)ccc12	248000	3350	–	–
500	O=C(/C=C/c1ccc(F)cc1F)c1ccc(S(=O)(=O)NCCCNc2cncc3cc(Cl)ccc23)cc1	–	–	22400	–
–	CSCCC(CN1CCN(c2ccccc2)CC1)Nc1ccnc2cc(Cl)ccc12 (configuration not stated)	–	–	–	IC50 [5]: > 5000 nM; IC50 [6]: > 5000 nM
–	Clc1ccc2c(NC(Cc3ccccc3)CN3CCN(Cc4ccc5c(c4)OCO5)CC3)ccnc2c1 (configuration not stated)	–	–	–	IC50 [5]: 89 nM; IC50 [6]: 757 nM
–	CC(C)CC(CN1CCN(c2ncccn2)CC1)Nc1ccnc2cc(Cl)ccc12 (configuration not stated)	–	–	–	IC50 [5]: 352 nM; IC50 [6]: 460 nM
–	O=C(CCN1C(=O)c2ccccc2C1=O)NCCNc1ccnc2cc(Cl)ccc12	> 237000	300	–	–
–	O=C(CCCN1C(=O)c2ccccc2C1=O)NCCCCCCNc1ccnc2cc(Cl)ccc12	> 203000	1570	–	–
–	CCN(CC)c1ccc2c(c1)C(=O)N(CCC(=O)NCCCCNc1ccnc3cc(Cl)ccc13)C2=O	84400	260	–	–
540	O=C(/C=C/c1c(F)cccc1F)c1ccc(S(=O)(=O)NCCCNc2cncc3cc(Cl)ccc23)cc1	–	–	27600	–
–	O=C(CCN1C(=O)c2ccc(N3CCN(CCO)CC3)cc2C1=O)NCCCCCCNc1ccnc2cc(Cl)ccc12	> 165000	180	–	–
570	O=C(/C=C/c1ccc(F)cc1)c1ccc(S(=O)(=O)NCCNc2cncc3cc(Cl)ccc23)cc1	–	–	14500	–
–	O=C(CN1C(=O)c2ccccc2C1=O)NCCNc1ccnc2cc(Cl)ccc12	> 245000	5650	–	–

IC50 [3] [nM]	SMILES	IC50 at 24 h [1] [nM]	IC50 [2] [nM]	IC50 [4] [nM]	further results
–	O=C(CCN1C(=O)c2ccc(F)cc2C1=O)NCCCCCCNc1ccnc2cc(Cl)ccc12	57200	660	–	–
–	CCN1CCN(CC(Nc2ccnc3cc(Cl)ccc23)n2ccc3ccccc32)CC1 (configuration not stated)	–	–	–	IC50 [5]: > 5000 nM; IC50 [6]: 4150 nM
4450	O=C(/C=C/c1ccco1)c1ccc(S(=O)(=O)NCCCNc2cncc3cc(Cl)ccc23)cc1	–	–	> 50000	–
1670	O=C(/C=C/c1ccccc1)c1ccc(S(=O)(=O)NCCCNc2cncc3cc(Cl)ccc23)cc1	–	–	> 50000	–
–	O=C(CCN1C(=O)c2ccc(N3CCN(CCO)CC3)cc2C1=O)NCCNc1ccnc2cc(Cl)ccc12	–	280	–	–
320	COc1ccc(/C=C/C(=O)c2ccc(S(=O)(=O)NCCCNc3cncc4cc(Cl)ccc34)cc2)cc1OC	–	–	43400	–
280	O=C(/C=C/c1ccc(F)cc1)c1ccc(S(=O)(=O)NCCCNc2cncc3cc(Cl)ccc23)cc1	–	–	14600	–
–	O=C(CCN1C(=O)c2ccc(N3CCOCC3)cc2C1=O)NCCCCCCNc1ccnc2cc(Cl)ccc12	> 178000	640	–	–
–	CC(C)CC(CN1CCN(Cc2ccc3c(c2)OCO3)CC1)Nc1ccnc2cc(Cl)ccc12 (configuration not stated)	–	–	–	IC50 [5]: 453 nM; IC50 [6]: 211 nM
–	CCN(CC)c1ccc2c(c1)C(=O)N(CCC(=O)NCCNc1ccnc3cc(Cl)ccc13)C2=O	203000	–	–	–
–	Clc1ccc2c(NCCN3CCN(c4ncccn4)CC3)ccnc2c1	–	–	–	IC50 [5]: 277 nM; IC50 [6]: 108 nM
–	O=C(CN1C(=O)c2ccccc2C1=O)NCCCCCCCCNc1ccnc2cc(Cl)ccc12	> 203000	240	–	–
690	O=C(/C=C/c1ccc2c(c1)OCO2)c1ccc(S(=O)(=O)NCCCNc2cncc3cc(Cl)ccc23)cc1	–	–	34100	–
–	CC(C)CC(CN1CCN(Cc2ccccc2)CC1)Nc1ccnc2cc(Cl)ccc12 (configuration not stated)	–	–	–	IC50 [5]: > 1000 nM; IC50 [6]: 154 nM
–	CCN(CC)c1ccc2c(c1)C(=O)N(CCC(=O)NCCCCCCNc1ccnc3cc(Cl)ccc13)C2=O	> 182000	530	–	–
–	CC(C)CC(CN1CCN(c2ccccc2)CC1)Nc1ccnc2cc(Cl)ccc12 (configuration not stated)	–	–	–	IC50 [5]: > 1000 nM; IC50 [6]: 521 nM
580	COc1ccc(/C=C/C(=O)c2ccc(S(=O)(=O)NCCCNc3cncc4cc(Cl)ccc34)cc2)c(OC)c1OC	–	–	22600	–
490	COc1ccc(/C=C/C(=O)c2ccc(S(=O)(=O)NCCNc3cncc4cc(Cl)ccc34)cc2)cc1	–	–	17500	–
